We go through 4 sequences from patent US20070128217A1 (priority 2003, published 2007).

Test [1] relates to control sera (pooled serum of ten healthy LUMC hospital workers; commercial negative donor pooled serum from the Dutch bloodbank). It is filed as binding, human.
In test [2] the test system is rabbit serum obtained by immunizing a rabbit with the SARS-CoV strain Frankfurt 1. It is filed as binding. Set-up: Binding of a rabbit serum to linear peptides / Binding of a rabbit serum to looped peptides / Rabbit serum linear peptides / Rabbit serum looped peptides / Binding of a rabbit serum to linear peptides of protein N of SARS-CoV Urbani (Rabbit serum linear peptides) / Binding of a rabbit serum to looped/cyclic peptides of protein N of SARS-CoV Urbani (Rabbit serum looped peptides): unit not given here.

For test [3], the system named is antibodies in sera from SARS patients (sera 1a, 1b, 2, 6, 37, 62, London, SARS-yellow, SARS-green). It is filed as binding, human.

In the case of TLIVNSVLLFLAFVV, in test [1], the “Binding of Control Serum Blood-Bank to Looped peptides” value came to 0.8, the “Binding of Control serum Blood-bank to linear peptides” value is 0.6, the “Binding of Control serum LUMC to linear peptides” value was found to be 0.4 and the “Binding of Control serum LUMC to looped peptides” value is on record as 0.8. Further, in test [2], the “Binding of a rabbit serum to linear peptides” value worked out at 0.1 and the “Binding of a rabbit serum to looped peptides” value is on record as 0.3. Further, in test [3], the “Binding of serum 1a to linear peptides of protein E of SARS-CoV Urbani” value came out at 0.7, the “Binding of serum 1a to looped/cyclic peptides of protein E of SARS-CoV Urbani” value was determined as 0.6, the “Binding of serum 1b to linear peptides of protein E of SARS-CoV Urbani” value amounted to 0.5 and the “Binding of serum 1b to looped/cyclic peptides of protein E of SARS-CoV Urbani” value was 0.5. Besides, in test [3], the “Binding of serum 2 to linear peptides of protein E of SARS-CoV Urbani” value worked out at 0.4, the “Binding of serum 2 to looped/cyclic peptides of protein E of SARS-CoV Urbani” value was 0.7, the “Binding of serum 6 to linear peptides of protein E of SARS-CoV Urbani” value was determined as 0.5 and the “Binding of serum 6 to looped/cyclic peptides of protein E of SARS-CoV Urbani” value amounted to 0.4. Also, in test [3], the “Binding of serum 37 to linear peptides of protein E of SARS-CoV Urbani” value worked out at 0.5, the “Binding of serum 37 to looped/cyclic peptides of protein E of SARS-CoV Urbani” value came to 0.7, the “Binding of serum 62 to linear peptides of protein E of SARS-CoV Urbani” value amounted to 0.3 and the “Binding of serum 62 to looped/cyclic peptides of protein E of SARS-CoV Urbani” value was determined as 0.6. Further, in test [3], the “Binding of serum London to linear peptides of protein E of SARS-CoV Urbani” value worked out at 0.6, the “Binding of serum London to looped/cyclic peptides of protein E of SARS-CoV Urbani” value came out at 0.4, the “Binding of serum SARS-green to linear peptides of protein E of SARS-CoV Urbani” value came out at 0.6 and the “Binding of serum SARS-green to looped/cyclic peptides of protein E of SARS-CoV Urbani” value is 0.5. Further, in test [3], the “Binding of serum SARS-yellow to linear peptides of protein E of SARS-CoV Urbani” value is given as 0.3 and the “Binding of serum SARS-yellow to looped/cyclic peptides of protein E of SARS-CoV Urbani” value turned out to be 0.6.
As to RLCAYCCNIVNVSLV, in test [1], the “Binding of Control Serum Blood-Bank to Looped peptides” value was 0.7, the “Binding of Control serum Blood-bank to linear peptides” value is 0.8, the “Binding of Control serum LUMC to linear peptides” value was determined as 0.6 and the “Binding of Control serum LUMC to looped peptides” value worked out at 0.8. Moreover, in test [2], the “Binding of a rabbit serum to linear peptides” value came to 0.4 and the “Binding of a rabbit serum to looped peptides” value was determined as 0.2. For the same sequence, in test [3], the “Binding of serum 1a to linear peptides of protein E of SARS-CoV Urbani” value turned out to be 0.6, the “Binding of serum 1a to looped/cyclic peptides of protein E of SARS-CoV Urbani” value turned out to be 0.7, the “Binding of serum 1b to linear peptides of protein E of SARS-CoV Urbani” value is recorded as 0.5 and the “Binding of serum 1b to looped/cyclic peptides of protein E of SARS-CoV Urbani” value came out at 0.7. Besides, in test [3], the “Binding of serum 2 to linear peptides of protein E of SARS-CoV Urbani” value was 0.6, the “Binding of serum 2 to looped/cyclic peptides of protein E of SARS-CoV Urbani” value stood at 0.7, the “Binding of serum 6 to linear peptides of protein E of SARS-CoV Urbani” value is on record as 0.4 and the “Binding of serum 6 to looped/cyclic peptides of protein E of SARS-CoV Urbani” value stood at 0.7. In test [3], the “Binding of serum 37 to linear peptides of protein E of SARS-CoV Urbani” value was found to be 0.5, the “Binding of serum 37 to looped/cyclic peptides of protein E of SARS-CoV Urbani” value was found to be 0.6, the “Binding of serum 62 to linear peptides of protein E of SARS-CoV Urbani” value was determined as 0.4 and the “Binding of serum 62 to looped/cyclic peptides of protein E of SARS-CoV Urbani” value is listed as 0.8. Also, in test [3], the “Binding of serum London to linear peptides of protein E of SARS-CoV Urbani” value was determined as 0.5, the “Binding of serum London to looped/cyclic peptides of protein E of SARS-CoV Urbani” value amounted to 0.5, the “Binding of serum SARS-green to linear peptides of protein E of SARS-CoV Urbani” value was determined as 0.5 and the “Binding of serum SARS-green to looped/cyclic peptides of protein E of SARS-CoV Urbani” value is recorded as 0.8. In test [3], the “Binding of serum SARS-yellow to linear peptides of protein E of SARS-CoV Urbani” value is 0.2 and the “Binding of serum SARS-yellow to looped/cyclic peptides of protein E of SARS-CoV Urbani” value is 0.6.
Turning to FLAFVVFLLVTLAIL, in test [1], the “Binding of Control Serum Blood-Bank to Looped peptides” value is listed as 0.8, the “Binding of Control serum Blood-bank to linear peptides” value is 0.4, the “Binding of Control serum LUMC to linear peptides” value is on record as 0.4 and the “Binding of Control serum LUMC to looped peptides” value is given as 0.6. In addition, in test [2], the “Binding of a rabbit serum to linear peptides” value is listed as 0.0 and the “Binding of a rabbit serum to looped peptides” value is listed as 0.2. In test [3], the “Binding of serum 1a to linear peptides of protein E of SARS-CoV Urbani” value is 0.7, the “Binding of serum 1a to looped/cyclic peptides of protein E of SARS-CoV Urbani” value was determined as 0.5, the “Binding of serum 1b to linear peptides of protein E of SARS-CoV Urbani” value stood at 0.5 and the “Binding of serum 1b to looped/cyclic peptides of protein E of SARS-CoV Urbani” value came to 0.5. Further, in test [3], the “Binding of serum 2 to linear peptides of protein E of SARS-CoV Urbani” value was found to be 0.2, the “Binding of serum 2 to looped/cyclic peptides of protein E of SARS-CoV Urbani” value is 0.6, the “Binding of serum 6 to linear peptides of protein E of SARS-CoV Urbani” value was found to be 0.4 and the “Binding of serum 6 to looped/cyclic peptides of protein E of SARS-CoV Urbani” value is 0.5. Besides, in test [3], the “Binding of serum 37 to linear peptides of protein E of SARS-CoV Urbani” value is on record as 0.3, the “Binding of serum 37 to looped/cyclic peptides of protein E of SARS-CoV Urbani” value came out at 0.6, the “Binding of serum 62 to linear peptides of protein E of SARS-CoV Urbani” value was determined as 0.1 and the “Binding of serum 62 to looped/cyclic peptides of protein E of SARS-CoV Urbani” value was 0.7. Moreover, in test [3], the “Binding of serum London to linear peptides of protein E of SARS-CoV Urbani” value came out at 0.4, the “Binding of serum London to looped/cyclic peptides of protein E of SARS-CoV Urbani” value is reported as 0.4, the “Binding of serum SARS-green to linear peptides of protein E of SARS-CoV Urbani” value worked out at 0.7 and the “Binding of serum SARS-green to looped/cyclic peptides of protein E of SARS-CoV Urbani” value worked out at 0.4. For the same sequence, in test [3], the “Binding of serum SARS-yellow to linear peptides of protein E of SARS-CoV Urbani” value came out at 0.3 and the “Binding of serum SARS-yellow to looped/cyclic peptides of protein E of SARS-CoV Urbani” value was determined as 0.5.
Regarding ETGTLIVNSVLLFLA, in test [1], the “Binding of Control Serum Blood-Bank to Looped peptides” value is listed as 0.5, the “Binding of Control serum Blood-bank to linear peptides” value worked out at 0.5, the “Binding of Control serum LUMC to linear peptides” value was 0.8 and the “Binding of Control serum LUMC to looped peptides” value is 0.5. In addition, in test [2], the “Binding of a rabbit serum to linear peptides” value is given as 0.3 and the “Binding of a rabbit serum to looped peptides” value is listed as 0.0. Also, in test [3], the “Binding of serum 1a to linear peptides of protein E of SARS-CoV Urbani” value stood at 0.8, the “Binding of serum 1a to looped/cyclic peptides of protein E of SARS-CoV Urbani” value is 0.5, the “Binding of serum 1b to linear peptides of protein E of SARS-CoV Urbani” value amounted to 0.7 and the “Binding of serum 1b to looped/cyclic peptides of protein E of SARS-CoV Urbani” value is 0.4. Moreover, in test [3], the “Binding of serum 2 to linear peptides of protein E of SARS-CoV Urbani” value is 0.8, the “Binding of serum 2 to looped/cyclic peptides of protein E of SARS-CoV Urbani” value was determined as 0.5, the “Binding of serum 6 to linear peptides of protein E of SARS-CoV Urbani” value is on record as 0.5 and the “Binding of serum 6 to looped/cyclic peptides of protein E of SARS-CoV Urbani” value is given as 0.4. In test [3], the “Binding of serum 37 to linear peptides of protein E of SARS-CoV Urbani” value came out at 0.4, the “Binding of serum 37 to looped/cyclic peptides of protein E of SARS-CoV Urbani” value is 0.5, the “Binding of serum 62 to linear peptides of protein E of SARS-CoV Urbani” value is recorded as 0.4 and the “Binding of serum 62 to looped/cyclic peptides of protein E of SARS-CoV Urbani” value was 0.7. In test [3], the “Binding of serum London to linear peptides of protein E of SARS-CoV Urbani” value is 0.8, the “Binding of serum London to looped/cyclic peptides of protein E of SARS-CoV Urbani” value was 0.4, the “Binding of serum SARS-green to linear peptides of protein E of SARS-CoV Urbani” value amounted to 0.6 and the “Binding of serum SARS-green to looped/cyclic peptides of protein E of SARS-CoV Urbani” value came to 0.3. In addition, in test [3], the “Binding of serum SARS-yellow to linear peptides of protein E of SARS-CoV Urbani” value was 0.4 and the “Binding of serum SARS-yellow to looped/cyclic peptides of protein E of SARS-CoV Urbani” value was determined as 0.5.
